Data taken from ChEMBL document CHEMBL1131686, “Synthesis and biological activities of topoisomerase I inhibitors, 6-N-amino analogues of NB-506” (Bioorg Med Chem Lett, 1999).
pEC50, pIC50: −log10 of the molar value.

Legend:
[1] = tested on: P388; assay: Effect on the formation of protein-DNA complex in P388 cells K+/SDS method; assay type: functional, Mus musculus
[2] = tested on: MKN-45; assay: Cytotoxicity against human stomach cancer cells (MKN-45) after intravenous administration (5 times/week for 2 weeks after tumor grew to 0.2 cme3 or larger); assay type: functional, cell-based; settings: MKN-45, 336 h
[3] = Lethal dose after intravenous administration (5 times/week for 2 weeks after tumor grew to 0.2 cme3 or larger) in mice; assay type: toxicity; settings: mouse, in vivo, 336 h
[4] = tested on: Mus musculus; assay: Cytotoxicity against human stomach cancer cells (MKN-45) implanted subcutaneously into a side flank of nude mice; assay type: functional, Cancer cell lines
[5] = molecular target: Protein kinase C alpha type (Homo sapiens, UniProt P17252); assay: In vitro activity evaluated against protein kinase C (using histone II-As as a substrate)
[6] = molecular target: T1, DNA topoisomerase 1 (Homo sapiens, UniProt P11387); assay: In vitro activity against topoisomerase-1 mediated cleavage of supercoiled pBR322 plasmid DNA; assay type: functional
T1 sequence (P11387 whole entry): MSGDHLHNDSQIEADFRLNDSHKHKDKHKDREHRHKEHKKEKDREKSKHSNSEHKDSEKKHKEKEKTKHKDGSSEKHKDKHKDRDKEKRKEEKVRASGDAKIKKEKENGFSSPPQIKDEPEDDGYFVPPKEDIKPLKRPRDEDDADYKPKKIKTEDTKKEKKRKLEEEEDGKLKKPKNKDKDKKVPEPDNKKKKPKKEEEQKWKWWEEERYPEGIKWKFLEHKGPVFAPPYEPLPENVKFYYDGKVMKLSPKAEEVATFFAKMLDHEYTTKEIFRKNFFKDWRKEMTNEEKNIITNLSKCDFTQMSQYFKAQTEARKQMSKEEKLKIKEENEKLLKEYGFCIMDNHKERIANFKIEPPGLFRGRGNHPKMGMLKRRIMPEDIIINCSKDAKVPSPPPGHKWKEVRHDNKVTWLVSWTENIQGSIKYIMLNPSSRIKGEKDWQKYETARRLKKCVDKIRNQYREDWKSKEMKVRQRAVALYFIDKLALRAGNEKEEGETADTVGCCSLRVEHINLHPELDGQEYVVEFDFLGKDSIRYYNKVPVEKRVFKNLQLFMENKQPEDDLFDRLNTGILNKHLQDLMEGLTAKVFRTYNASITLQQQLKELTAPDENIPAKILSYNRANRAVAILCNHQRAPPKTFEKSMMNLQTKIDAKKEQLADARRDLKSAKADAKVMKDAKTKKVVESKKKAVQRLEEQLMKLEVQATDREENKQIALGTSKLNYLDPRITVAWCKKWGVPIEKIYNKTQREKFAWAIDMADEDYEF

[7] = tested on: P388; assay: In vitro cytotoxicity (CTX) against murine leukemia cells (P388) using colorimetric tetrazolium-formazan method; assay type: functional, cell-based; settings: Mus musculus
[8] = tested on: MKN-45; assay: In vitro cytotoxicity (CTX) against human stomach cancer cells (MKN-45) using sulforhodamine B dye-staining method; assay type: functional, cell-based
[9] = Ratio of LD10 to that of GID75 was determined; expressed as safety margin; assay type: functional
[10] = molecular target: DNA topoisomerase II (Homo sapiens, UniProt P11388+Q02880); assay: In vitro activity against topoisomerase-2 mediated cleavage of supercoiled pBR322 plasmid DNA; assay type: functional
[11] = molecular target: Epidermal growth factor receptor (Homo sapiens, UniProt P00533); assay: In vitro activity against Epidermal growth factor receptor (using poly(Glu4Tyr1) as a substrate)
Chain of Epidermal growth factor receptor (P00533 whole entry): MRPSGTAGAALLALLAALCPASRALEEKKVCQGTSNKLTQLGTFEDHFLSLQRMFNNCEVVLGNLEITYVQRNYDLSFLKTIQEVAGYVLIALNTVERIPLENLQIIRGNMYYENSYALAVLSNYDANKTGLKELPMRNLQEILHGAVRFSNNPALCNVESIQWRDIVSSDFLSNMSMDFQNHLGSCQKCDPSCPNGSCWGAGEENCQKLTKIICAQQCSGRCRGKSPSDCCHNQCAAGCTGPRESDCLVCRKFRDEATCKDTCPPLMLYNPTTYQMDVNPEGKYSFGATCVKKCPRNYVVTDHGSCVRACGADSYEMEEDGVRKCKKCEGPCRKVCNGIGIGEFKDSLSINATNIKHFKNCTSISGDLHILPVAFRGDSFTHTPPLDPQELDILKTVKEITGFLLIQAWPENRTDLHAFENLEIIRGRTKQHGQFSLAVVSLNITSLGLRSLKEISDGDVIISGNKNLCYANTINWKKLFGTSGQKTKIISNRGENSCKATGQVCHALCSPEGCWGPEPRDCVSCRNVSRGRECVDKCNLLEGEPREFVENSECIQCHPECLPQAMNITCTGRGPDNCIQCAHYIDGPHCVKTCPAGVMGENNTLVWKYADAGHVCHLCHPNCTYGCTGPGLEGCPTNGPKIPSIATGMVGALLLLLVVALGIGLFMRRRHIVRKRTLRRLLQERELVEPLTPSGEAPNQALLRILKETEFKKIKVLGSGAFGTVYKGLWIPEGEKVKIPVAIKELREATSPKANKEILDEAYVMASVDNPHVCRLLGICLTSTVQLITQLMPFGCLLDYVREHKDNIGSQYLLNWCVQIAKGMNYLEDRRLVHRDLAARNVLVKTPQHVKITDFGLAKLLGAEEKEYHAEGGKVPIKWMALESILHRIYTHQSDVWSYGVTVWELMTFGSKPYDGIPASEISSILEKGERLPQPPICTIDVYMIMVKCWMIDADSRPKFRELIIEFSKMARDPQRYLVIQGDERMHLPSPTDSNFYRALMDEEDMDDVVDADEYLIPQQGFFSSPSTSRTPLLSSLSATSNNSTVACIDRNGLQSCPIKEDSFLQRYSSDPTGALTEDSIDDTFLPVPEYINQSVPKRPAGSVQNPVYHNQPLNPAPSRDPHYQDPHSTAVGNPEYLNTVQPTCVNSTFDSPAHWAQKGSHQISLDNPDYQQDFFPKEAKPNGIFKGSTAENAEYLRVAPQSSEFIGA

| SMILES | EC200 [1] [µM] | pIC50 [2] | LD10 [3] [mg/me2] | GID75 [4] [mg/me2] | pIC50 [5] | pEC50 [6] | pIC50 [7] | pIC50 [8] | Activity [9] [Ratio] | EC50 [10] [nM] | pIC50 [11] |
| --- | --- | --- | --- | --- | --- | --- | --- | --- | --- | --- | --- |
| O=C(CO)NN1C(=O)c2c(c3c4cccc(O)c4n(C4OC(CO)C(O)C(O)C4O)c3c3[nH]c4c(O)cccc4c23)C1=O (stereo not drawn) | 5 | 6.18 | > 1500 | 1200 | < 3.70 | 5.55 | 6.62 | 6.18 | > 1.3 | > 50000 | < 3.70 |
| O=C1c2c(c3c4cccc(O)c4n(C4OC(CO)C(O)C(O)C4O)c3c3[nH]c4c(O)cccc4c23)C(=O)N1NCCO (stereo not drawn) | 0.3 | 8.52 | 560 | 270 | < 3.70 | 6.37 | 8.22 | 8.52 | 2.1 | > 50000 | < 3.70 |
| N#CCCNN1C(=O)c2c(c3c4cccc(O)c4n(C4OC(CO)C(O)C(O)C4O)c3c3[nH]c4c(O)cccc4c23)C1=O (stereo not drawn) | 0.9 | 7.70 | 640 | 200 | < 3.70 | 7.15 | 8.22 | 7.70 | 3.2 | > 50000 | < 3.70 |
